Patent publication US10537559B2, “Isonitramine compound and composition containing same for preventing or treating metabolic diseases” (INJE UNIVERSITY INDUSTRY-ACADEMIC COOPERATION FOUNDATION, priority 2015, dated 2020)

Legend:
[1] = system: metabolic enzymes essential for carbohydrate absorption; test: Selectivity of inhibition of carbohydrate metabolism enzymes (FIG. 4); format: biochemical; conditions: 100 μM, as compared with Compound 4 to 6
Experimental: The mixtures were pre-cultured at a temperature of 37° C. for 10 minutes, and 25 μl of 0.5% starch solution was added thereto, followed by being cultured at a temperature of 37° C. for 10 minutes. Then, the mixtures were cultured again at a temperature of 100° C. for 5 minutes to stop the reaction, and the mixtures were cooled.
25 μl of DNS was added to the cooled reaction solutions, and a color reaction was induced at a temperature of 100° C. for 5 minutes. The resulting solutions were cooled again. The solutions in which the color reaction was induced were transferred to a 96-well plate, and absorbance thereof was measured at a wavelength of 540 nm by using a 96-well microplate reader.
Here, the inhibitory effect was calculated according to Equation 1: Enzymatic inhibitory activity=(1−Ax/A0)×100% [Equation 1] • Ax indicates an absorbance value of a control group • A0 indicates an absorbance value of a test group upon treatment of isonitramine

[2] = system: 3T3-L1 mouse preadipocytes; test: Adipocyte differentiation of 3T3-L1 preadipocytes (Nile red staining); format: cell-based; conditions: FIG. 2A
Experimental: (§1) 3T3-L1 mouse preadipocytes were cultured in a Dulbecco's modified Eagle's medium (DMEM) supplemented with 10% newborn calf serum (Gibco BRL, NY, USA) and antibiotics (100 U/ml penicillin and 100 μg/ml streptomycin, Gibco BRL, NY, USA) in an incubator under humidification conditions of a temperature of 37 r and 5% CO2.
(§2) Afterwards, the cultured 3T3-L1 mouse cells were treated with 0.5 mM 1-methyl-3-isobutylxanthine purchased from Sigma (St. Louis, Mo.), 1 μM dexamethasone, 1 μg/mL insulin, and 10% fetal bovine serum (FBS, Gibco BRL), and then, cultured for 2 days to induce differentiation. After 2 days, the cultured medium was replaced with a fresh DMEM supplemented with 10% FBS and 1 μg/mL insulin. For the next 4 days, the cultured medium was replaced with a fresh DMEM supplemented with 10% FBS every day.
The undifferentiated or differentiated cells were washed three times with phosphate-buffered saline (PBS), and then, fixed with 4% […] (PFA) at room temperature for 1 hour. Afterwards, the resulting cells were washed three times with PBS, and stained with 0.5 μg/ml of nile red (available from Sigma, St. Louis, Mo.) for 10 minutes. Following the completion of the staining, the resulting cells were washed with PBS, and the nuclei thereof were stained again with 4′-6-diamidino-2-phenylindole, (DAPI, available from Invitrogen). […]

porcine α-amylase = target: T1, porcine α-amylase (Sus scrofa, UniProt P00690); test: Inhibitory effect on porcine α-amylase; format: biochemical; conditions: FIG. 4; 100 μM, pH 6.8, starch substrate
T1 construct: purchased Sigma
T1 sequence (P00690 16-511): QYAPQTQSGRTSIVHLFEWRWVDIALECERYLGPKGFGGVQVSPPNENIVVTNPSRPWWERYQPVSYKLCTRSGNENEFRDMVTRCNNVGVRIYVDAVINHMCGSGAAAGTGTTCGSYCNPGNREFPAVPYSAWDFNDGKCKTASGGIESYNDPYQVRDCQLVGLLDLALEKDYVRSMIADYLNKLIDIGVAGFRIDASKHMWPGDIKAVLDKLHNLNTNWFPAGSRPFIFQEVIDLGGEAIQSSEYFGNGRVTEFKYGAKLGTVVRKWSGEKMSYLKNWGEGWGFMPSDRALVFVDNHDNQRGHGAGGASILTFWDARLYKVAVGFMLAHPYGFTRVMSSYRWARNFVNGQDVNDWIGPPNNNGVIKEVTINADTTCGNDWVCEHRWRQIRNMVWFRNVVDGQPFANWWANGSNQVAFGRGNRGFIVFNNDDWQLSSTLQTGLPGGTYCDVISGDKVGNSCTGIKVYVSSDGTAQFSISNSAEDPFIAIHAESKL
Experimental: (§3) A glucose assay kit was purchased for use from Youngdong Company (Seoul, Korea). In addition, from Sigma Company, porcine α-amylase, yeast α-glucosidase, 3,5-dinitrosalicylic acid (DNS), p-nitrophenol glucoside (pNPG), rat intestinal acetone powder, sucrose, and maltose were purchased. Soluble starch was obtained from Samchun Chemical Company (Seoul, Korea), and Acarbose was purchased from Tokyo chemical industry Company (Tokyo, Japan).
5 μl of α-amylase (0.1 U/mL) was diluted with 50 mM phosphate buffer (pH 6.8), and the diluted solution was mixed with each of 100 μM (+)-isonitramine (1) or Compound 2 to 6 of Example 1. In addition, as a positive control group, Acarbose was mixed at the same concentration with (+)-isonitramine (1). […]
25 μl of DNS was added to the cooled reaction solutions, and a color reaction was induced at a temperature of 100° C. for 5 minutes. […] The solutions in which the color reaction was induced were transferred to a 96-well plate, and absorbance thereof was measured at a wavelength of 540 nm by using a 96-well microplate reader.
Here, the inhibitory effect was calculated according to Equation 1: Enzymatic inhibitory activity=(1−Ax/A0)×100% [Equation 1] • Ax indicates an absorbance value of […] upon treatment of isonitramine

[3] = system: phosphoenolpyruvate carboxykinase (PEPCK); test: PEPCK expression in zebrafish embryo (RT-PCR); format: in vivo; conditions: FIG. 9, with 100 mM cAMP and 100 mM dexamethasone, 48 hours
Experimental: (§4) In the experiment performed to verify the effect on the amount of insulin secretion, the zebrafish embryo underwent 96 hour post-fertilization (hpf) was exuviated, and then, treated with isonitramine for 48 hours. In the experiment performed to verify the effect on gluconeogenesis, 100 mM cyclic AMP (cAMP) and 100 mM dexamethasone (DEX) were simultaneously treated with isonitramine, and then, cultured for 48 hours.
(§5) From the cultured embryo above, TRIzol (available from Invitrogen) was used to isolate mRNA, and the isolated RNA was synthesized to cDNA by using iScript cDNA Synthesis Kit (available from Bio-Rad). Afterwards, to amplify the cDNA, primers listed in Table 2 were used, wherein each primer was purchased from Bioneer.

zebrafish = test: Postprandial hyperglycemia in diabetic-inducible (streptozocin) zebrafish; format: in vivo; conditions: FIG. 6; STZ-injected zebrafish fed flake mixed with compound at various concentrations for 1 hour
Experimental: The zebrafish was anesthetized by placing it in water at a temperature of 8° C. for 20 seconds.
For intraperitoneal injection, 350 mg/kg of a solution of 0.9% streptozocin (available from Sigma, St. Louis, Mo.) in 0.09% NaCl solution was injected with a syringe having 25 gauge needle (available from Trajan Scientific, Australia). Here, to a control group of zebrafish, the same amount of PBS was injected intraperitoneally. After the completion of the injection, the test and control groups of zebrafish were bread at a temperature of 24° C.
The zerafish was subjected to intraperitoneal injection of STZ or PBS three times (350 mg/kg) for a week. After the final injection, the zerafish was fed with commercial flake food (available from Tetrabits tropical flakes, Tetra, Germany) for 5 days.
After fasting for 24 hours, the zebrafish to which PBS was injected was fed with commercial flask food, and the zebrafish to which STZ was injected was fed with flake mixed with (+)-isonitramine (1) at various concentrations, for 1 hour. Afterwards, plasma blood of each zebrafish was enzymatically measured by using a glucose trinder kit.

HIT-T15 cells = test: Insulin secretion of HIT-T15 cells (insulin ELISA); format: cell-based; conditions: FIG. 7
Experimental: To identify effects of isonitramine derivatives on insulin secretion, a type of insulin cells, e.g., HIT-T15 cells, were obtained by the Korean Cell Line Back, and then, subcultured. In detail, the HIT-T15 cells were cultured in a RPMI1640 medium (available from invitrogen. Co, USA) supplemented with 10% fetal bovine serum (FBS, available from invitrogen. Co, New Zealand 10091-148), 100 mu/ml of penicillin, and 100 μg/ml of streptomycin, under humidification conditions of a temperature of 37° C. and 5% CO2.
Insulin secretion influenced by (+)-isonitramine was measured according to the recommended method using insulin ELISA kit (Cat.10-1113-01, available from Mercodia Company). First, the HIT-T15 cells were loaded to a 96-well plate at a concentration of 5×10^4 cells/well, and cultured until reaching 70% to 80% cell confluency in an incubator at a temperature of 37° C. in a CO2 incubator. Then, the cells were pre-treated with 500 μM alloxan, which induces a pancreatic-specific toxic response, for 30 minutes. Afterwards, (+)-isonitramine was added to each well, and cultured for 24 hours. The culture solution was collected therefrom, and subjected to a centrifugation at a speed of about 15,000 rpm for 3 minutes. […] The changes resulted from the termination of the reaction were measured by using an ELISA-reader (VERSA max, micro-reader, MDS. Co, USA) at a wavelength of 450 nm.

yeast α-glucosidase = target: T2, yeast α-glucosidase (Saccharomyces cerevisiae, UniProt P53341); test: Inhibitory effect on yeast α-glucosidase (pNPG substrate); format: biochemical; conditions: FIG. 4; 100 μM, pH 5.6, pNPG substrate
T2 construct: purchased Sigma
Experimental: as §3
5 μl of […] (0.1 U/mL) was diluted with 50 mM sodium acetate buffer (pH 5.6), and the diluted solution was mixed with each of 100 μM (+)-isonitramine (1) or Compound 2 to 6 of Example 1. In addition, as a positive control group, Acarbose was mixed at the same concentration with (+)-isonitramine (1).
The mixtures were pre-cultured at a temperature of 37° C. for 10 minutes, and 25 μl of pNPG was added thereto, followed by being cultured at a temperature of 60° C. for 10 minutes. Then, 1N NaOH was added thereto to stop the reaction.
Afterwards, the resulting solution in which a color reaction was induced was transferred to a 96-well plate, and absorbance thereof was measured at a wavelength of 405 nm by using a 96-well microplate reader.

LPL = test: RT-PCR mRNA expression in adipocytes: LPL; format: cell-based, mouse; conditions: FIG. 3, β-actin internal control
Experimental: (§6) According to the manufacturer's instructions, total cell RNA of the undifferentiated adipocytes and differentiated adipocytes was extracted by using Trizol (available from Invitrogen).
(§7) The RNA (4 μg) was reverse-transcribed into cDNA by using M-MLV reverse transcriptase (available from Promega). Accordingly, the expression of peroxisome proliferator-activated receptor γ (PPARγ), CCAAT/enhancer binding protein-α (C/EBPα), adipocyte protein 2 (aP2), lipoprotein lipase (LPL), and adiponectin was each confirmed.
(§8) The variable number of cycles was used to identify the amplification occurred in the linear phase.
(§9) In the PCR amplification, β-actin was used as an internal control group. The PCR products were separated by using 2.0% agarose gel, followed by being visualized by RedSafe nucleic acid staining (available from Intron, Korea) and UV irradiation.

[4] = system: 3T3-L1 mouse preadipocytes; test: Analysis of triglyceride concentration in differentiated adipocytes; format: cell-based; conditions: FIG. 2B; adipocytes differentiated 8 days with 100 μM or 500 μM
Experimental: as §1, §2
The concentration of triglyceride in the cells was measured by using a triglyceride reagent purchased from Sigma and a free glycerol reagent.
The adipocytes were differentiated for 8 days with (+)-isonitramine 1 at a concentration of 100 μM or 500 μM, in a 6-well plate.
To analyze the concentration of triglyceride in the cells, the cells were washed with PBS, and then, lysed with 100 μl of a lysis buffer. […]
Following the completion of the culturing, the absorbance of the cells was measured by using a spectrophotometer at a wavelength of 540 nm.

[5] = system: 3T3-L1 mouse preadipocytes; test: Cytotoxicity in adipocyte differentiation experiment; format: cell-based; conditions: FIG. 3; adipocytes
zf preproinsulin (insa) = test: Insulin expression in zebrafish embryo (RT-PCR); format: in vivo; conditions: FIG. 8; zebrafish embryo 96 hpf treated 48 hours
Experimental: as §4, §5

C/EBPα = conditions: FIG. 3; RT-PCR, β-actin internal control
Experimental: as §6, §7, §8, §9

aP2 = test: RT-PCR mRNA expression in adipocytes: aP2; format: cell-based, mouse; conditions: FIG. 3, β-actin internal control
Experimental: as §6, §7, §8, §9

zebrafish larvae = test: Zebrafish toxicity (FIG. 5); format: in vivo; conditions: zebrafish model
adiponectin = test: RT-PCR mRNA expression in adipocytes: adiponectin; format: cell-based, mouse; conditions: FIG. 3, β-actin internal control
Experimental: as §6, §7, §8, §9

PPARγ = test: RT-PCR mRNA expression in adipocytes: PPARγ; format: cell-based, mouse; conditions: FIG. 3, β-actin internal control
Experimental: as §6, §7, §8, §9

T2 sequence (P53341 whole entry): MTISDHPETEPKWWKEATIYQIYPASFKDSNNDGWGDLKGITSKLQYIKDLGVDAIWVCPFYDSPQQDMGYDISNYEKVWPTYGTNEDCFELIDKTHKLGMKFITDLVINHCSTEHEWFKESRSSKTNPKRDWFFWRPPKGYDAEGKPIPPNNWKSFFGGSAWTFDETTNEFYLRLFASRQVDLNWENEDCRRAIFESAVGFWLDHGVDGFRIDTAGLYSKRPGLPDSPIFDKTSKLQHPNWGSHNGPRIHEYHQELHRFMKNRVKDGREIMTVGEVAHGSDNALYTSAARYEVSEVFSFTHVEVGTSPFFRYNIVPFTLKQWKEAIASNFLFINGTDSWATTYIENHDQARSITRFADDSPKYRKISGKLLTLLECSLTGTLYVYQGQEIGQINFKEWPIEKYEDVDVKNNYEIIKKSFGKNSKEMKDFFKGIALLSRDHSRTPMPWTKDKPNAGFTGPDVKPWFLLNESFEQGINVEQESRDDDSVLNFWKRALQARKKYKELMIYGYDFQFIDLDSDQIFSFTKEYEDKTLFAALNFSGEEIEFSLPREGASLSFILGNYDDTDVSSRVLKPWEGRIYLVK

SMILES | selective inhibitory effects on metabolic enzymes essential for carbohydrate absorption [1] | differentiation of 3T3-L1 mouse preadipocytes into mature adipocytes [2] | inhibition of α-amylase (porcine α-amylase) | inhibitory effect on the expression of PEPCK [3] | blood glucose (zebrafish) | insulin secretion (HIT-T15 cells; HIT-T15 cells pre-treated with 500 μM alloxan 30 minutes, then compound 24 hours) | inhibition of α-glucosidase (yeast α-glucosidase) | mRNA expression of LPL (LPL) | concentration of triglyceride [4] | cytotoxicity [5] | expression of insulin (zf preproinsulin (insa)) | mRNA expression of C/EBPα (C/EBPα) | mRNA expression of aP2 (aP2) | cardiovascular toxicity (zebrafish larvae) | developmental toxicity (zebrafish larvae) | mRNA expression of adiponectin (adiponectin) | mRNA expression of PPARγ (PPARγ) | insulin secretion (HIT-T15 cells; HIT-T15 cells treated with 500 μM alloxan, normal state 33.39±1.12 ng/mL (n=4)) [ng/mL]
O[C@@H]1CCCC[C@]12CCCNC2 [(+)-isonitramine (1), (+)-isonitramine] | selective inhibitory effects | inhibited the differentiation | hardly inhibited | significantly increased in proportion to the concentration | reduction of blood glucose in a concentration-dependent manner | increasing the insulin secretion in a concentration-dependent manner | inhibiting | weakened | decreased the concentration of triglyceride in a concentration-dependent manner | without cytotoxicity | increased | inhibited | weakened | no | no | weakened | inhibited | –
O=C1NC(=O)C(=O)C(=O)N1 [alloxan, reference compound] | – | – | – | – | – | – | – | – | – | – | – | – | – | – | – | – | – | 18.92 ± 0.43
